Positions count from the first letter of the chain named.
Legend:
Assay type in all cases: binding
STAT3 = assay: Fluorescence polarization assay, STAT3; settings: at 40 µM
[1] = molecular target: T1, STAT5b Phe633Ala, Tyr665Ala (Homo sapiens, UniProt P51692, F633A/Y665A); assay: Isothermal titration calorimetry, STAT5b Phe633Ala, Tyr665Ala double mutant; settings: ITC, 25 °C, n = 3
T1 sequence (P51692 1-787 F633A/Y665A): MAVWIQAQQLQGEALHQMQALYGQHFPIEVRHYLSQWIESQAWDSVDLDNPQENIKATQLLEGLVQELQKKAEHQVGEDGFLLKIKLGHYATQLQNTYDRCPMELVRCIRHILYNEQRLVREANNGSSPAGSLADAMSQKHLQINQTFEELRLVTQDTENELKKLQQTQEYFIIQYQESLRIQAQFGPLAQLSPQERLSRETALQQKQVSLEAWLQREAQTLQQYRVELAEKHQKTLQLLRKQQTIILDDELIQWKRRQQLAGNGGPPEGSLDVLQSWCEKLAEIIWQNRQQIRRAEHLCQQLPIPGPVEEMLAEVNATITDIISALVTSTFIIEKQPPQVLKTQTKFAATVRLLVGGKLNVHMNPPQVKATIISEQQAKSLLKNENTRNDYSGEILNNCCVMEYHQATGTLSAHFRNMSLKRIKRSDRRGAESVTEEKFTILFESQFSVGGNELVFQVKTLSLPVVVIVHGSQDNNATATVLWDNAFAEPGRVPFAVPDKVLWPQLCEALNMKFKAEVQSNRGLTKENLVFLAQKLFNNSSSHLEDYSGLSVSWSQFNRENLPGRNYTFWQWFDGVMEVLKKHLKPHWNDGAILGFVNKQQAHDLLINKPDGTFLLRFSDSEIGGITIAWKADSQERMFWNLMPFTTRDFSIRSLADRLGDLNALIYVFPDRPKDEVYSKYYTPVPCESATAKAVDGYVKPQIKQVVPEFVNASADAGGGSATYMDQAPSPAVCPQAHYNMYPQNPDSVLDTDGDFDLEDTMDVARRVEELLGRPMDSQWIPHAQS

Lck SH2 = molecular target: T2, Lck SH2 (Homo sapiens, UniProt P06239); assay: Fluorescence polarization assay, Lck SH2; settings: read-out: Lck SH2 maximum inhibition
T2 construct: the more distantly related SH2 domain of the tyrosine kinase Lck
T2 sequence (P06239 127-224 limits assumed): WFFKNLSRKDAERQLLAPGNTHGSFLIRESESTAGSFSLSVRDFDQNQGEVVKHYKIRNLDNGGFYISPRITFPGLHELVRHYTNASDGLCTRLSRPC

wild-type STAT5b = molecular target: T3, wild-type STAT5b (Homo sapiens, UniProt P51692); assay: Isothermal titration calorimetry, wild-type STAT5b; settings: ITC, 25 °C, n = 3
T3 sequence (P51692 1-787): T1 sequence (P51692 1-787 F633A/Y665A) with A633F, A665Y

STAT1 = molecular target: T4, STAT1 (Homo sapiens, UniProt P42224); assay: Fluorescence polarization assay, STAT1
T4 sequence (P42224 1-750): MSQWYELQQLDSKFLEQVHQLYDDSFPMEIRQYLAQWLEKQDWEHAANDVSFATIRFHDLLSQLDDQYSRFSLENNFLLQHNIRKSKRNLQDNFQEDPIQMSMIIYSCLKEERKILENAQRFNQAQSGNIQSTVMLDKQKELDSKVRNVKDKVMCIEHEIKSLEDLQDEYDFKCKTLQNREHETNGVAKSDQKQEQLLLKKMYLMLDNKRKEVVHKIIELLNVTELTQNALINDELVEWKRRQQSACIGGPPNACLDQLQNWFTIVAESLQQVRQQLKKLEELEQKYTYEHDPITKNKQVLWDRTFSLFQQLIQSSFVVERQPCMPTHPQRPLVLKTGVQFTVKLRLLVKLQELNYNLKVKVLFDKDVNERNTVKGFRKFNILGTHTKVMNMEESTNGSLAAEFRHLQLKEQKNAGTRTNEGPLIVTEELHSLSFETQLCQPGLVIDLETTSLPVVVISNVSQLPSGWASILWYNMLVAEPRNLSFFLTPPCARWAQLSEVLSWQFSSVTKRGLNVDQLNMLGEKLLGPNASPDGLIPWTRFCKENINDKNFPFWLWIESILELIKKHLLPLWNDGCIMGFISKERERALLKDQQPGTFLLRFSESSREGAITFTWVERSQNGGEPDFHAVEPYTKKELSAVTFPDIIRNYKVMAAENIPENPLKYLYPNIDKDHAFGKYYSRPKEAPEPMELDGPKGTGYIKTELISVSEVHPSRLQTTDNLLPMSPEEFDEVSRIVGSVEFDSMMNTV

For `O=C(COc1ccc(C(=O)Nc2ccc(Oc3ccccc3)cc2)cc1)NCc1ccc(OP(=O)(O)O)c(OP(=O)(O)O)c1` [compound 4, 4-((2-(4-((4-phenoxyphenyl)carbamoyl)phenoxy)acetamido)methyl)-1,2-phenylene bis(dihydrogen phosphate)], which STAT3 maximum inhibition (STAT3) is on record?
Its STAT3 maximum inhibition is 30 ± 3%.

What about the Kd [1] of the same molecule?
Its Kd is 3.8 ± 1.7 µM.

What about the ΔH [1] of the same molecule?
Its ΔH is -5.1 ± 0.5 kcal/mol.

And the “−TΔS” value [1]?
Its value is -2.4 ± 0.3 kcal/mol.

What about the inhibition at 40 µM (Lck SH2) of the same molecule?
Its inhibition at 40 µM is 25 ± 2%.

And the ΔH (wild-type STAT5b)?
The ΔH was -4.1 ± 0.5 kcal/mol.

And the “−TΔS” value (wild-type STAT5b)?
The value was -4.8 ± 0.6 kcal/mol.

What about the Ki (STAT1; converted from IC50 using the published equation) of the same molecule?
Its Ki is 22.8 ± 1 µM.

What about the IC50 (STAT1; fluorescence polarization) of the same molecule?
The IC50 was 46 ± 2 µM.

— PMC5429769, “Rational development of Stafib-2: a selective, nanomolar inhibitor of the transcription factor STAT5b” (Scientific Reports, 2017)
